From patent US11220479B2, “Glucosylceramide synthase inhibitors and therapeutic methods using the same” (THE REGENTS OF THE UNIVERSITY OF MICHIGAN, priority 2019, dated 2022)
Read-outs that look alike come from different tables or passages of the source.

Legend:
[1] = biological target: T1, glucosylceramide synthase (GCS) (Canis lupus familiaris, UniProt A0A8I3MXG6); assay: GCS inhibition in MDCKII cells (inhibition of GlcCer production in whole wild-type MDCKII cells); assay type: cell-based; conditions: read-out: MDCK IC50
T1 construct: endogenous in cells; host or cells: parental (wild-type) MDCKII cells
T1 sequence (A0A8I3MXG6 1-394): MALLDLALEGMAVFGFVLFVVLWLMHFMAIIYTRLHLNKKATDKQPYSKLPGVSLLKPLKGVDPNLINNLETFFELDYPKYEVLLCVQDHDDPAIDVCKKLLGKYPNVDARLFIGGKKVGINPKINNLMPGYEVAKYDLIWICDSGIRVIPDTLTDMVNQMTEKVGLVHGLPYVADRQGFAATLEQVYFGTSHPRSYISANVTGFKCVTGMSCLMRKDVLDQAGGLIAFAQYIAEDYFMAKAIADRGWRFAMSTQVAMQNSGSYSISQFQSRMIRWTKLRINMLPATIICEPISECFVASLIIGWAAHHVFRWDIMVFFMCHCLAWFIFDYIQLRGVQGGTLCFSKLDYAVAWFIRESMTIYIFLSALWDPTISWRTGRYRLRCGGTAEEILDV

[2] = Half-life when incubated with mouse liver microsomes (MLM); assay type: in vitro ADME; conditions: read-out: MLM T½
Protocol: ^a Inhibition of GlcCer production in whole wild-type MDCKII cells. ^bHalf-life when incubated with mouse liver microsomes. ^cAreas under the drug concentration curve after single IP dose in mice (10 mg/kg). ^dReduction in brain levels of glucosylceramide in CBE mice after 14 days of qd dosing with test drug administered IP. NC=no change.

[3] = IP PK: areas under the drug concentration curve after single IP dose in mice; assay type: in vivo; conditions: mice, single IP dose 10 mg/kg; for AUC: mouse, plasma
[4] = inhibition of GlcCer production in whole wild-type MDCKII cells, 24 hours
[5] = half-life when incubated with mouse liver microsomes
[6] = mouse, liver microsomes, Table 2, Cl vs H comparison

Row | IC50 [1, 4] [nM] | half-life [2, 5] [min] | IP PK Brain AUC [3] | AUC [3] [µg·h/mL] | half-life [2, 6] [min] | IC50 ([1]; Table 2, Cl vs H comparison) [nM] | Compound
1 | 19.5 | 0.8 | 2.656 µg·h/mL | 0.913 |  |  | O=C(N[C@H](CN1CC[C@@H](F)C1)[C@H](O)c1cccc(Cl)c1)OC1Cc2ccccc2C1.O=C(O)C(=O)O [Example 15, 2,3-dihydro-1H-inden-2-yl ((1R,2R)-1-(3-chlorophenyl)-3-((R)-3-fluoropyrrolidin-1-yl)-1-hydroxypropan-2-yl)carbamate oxalate]
2 |  |  |  |  | 251 |  | O=C(CC1Cc2ccccc2C1)N[C@H](CN1CCCC1)[C@H](O)c1ccc(OC(F)(F)F)cc1 [Comp. Ex. 3, reference compound]
3 |  |  |  |  | 38 |  | O=C(CC1Cc2ccccc2C1)N[C@H](CN1CCCC1)[C@H](O)c1ccc(OC(F)F)cc1 [Comp. Ex. 9, reference compound]
4 | 9.2 |  |  | 0.324 |  |  | CC1(OC(=O)N[C@H](CN2CCCC2)[C@H](O)c2cccc(Cl)c2)Cc2ccccc2C1 [Example 14, 2-methyl-2,3-dihydro-1H-inden-2-yl ((1R,2R)-1-(3-chlorophenyl)-1-hydroxy-3-(pyrrolidin-1-yl)propan-2-yl)carbamate]
5 | 0.63 | 5.5 | 0.178 µg·h/mL | 0.397 |  |  | O=C(CC1Cc2ccccc2C1)N[C@H](CN1CC[C@@H](F)C1)[C@H](O)c1ccc(OC2CC2)c(Cl)c1 [Example 11, N-((1R,2R)-1-(3-chloro-4-cyclopropoxyphenyl)-3-((R)-3-fluoropyrrolidin-1-yl)-1-hydroxypropan-2-yl)-2-(2,3-dihydro-1H-inden-2-yl)acetamide]
6 | 6.8 | 54 |  |  |  |  | O=C(CC1Cc2ccccc2C1)N[C@H](CN1CCC1)[C@H](O)c1cccc(Cl)c1 [Example 16, N-((1R,2R)-3-(azetidin-1-yl)-1-(3-chlorophenyl)-1-hydroxypropan-2-yl)-2-(2,3-dihydro-1H-inden-2-yl)acetamide]
7 | 4.1 | 316 |  |  |  |  | O=C(CC1Cc2ccccc2C1)N[C@H](CN1CCCC1)[C@H](O)c1ccc(OC(F)(F)F)c(Cl)c1 [Example 3, N-((1R,2R)-1-(3-chloro-4-(trifluoromethoxy)phenyl)-1-hydroxy-3-(pyrrolidin-1-yl)propan-2-yl)-2-(2,3-dihydro-1H-inden-2-yl)acetamide]
8 | 24.1 | > 1000 |  |  |  |  | CC(C)(C)c1ccc([C@@H](O)[C@@H](CN2CCCC2)NC(=O)CC2Cc3ccccc3C2)cc1Cl [Example 21, N-((1R,2R)-1-(4-(tert-butyl)-3-chlorophenyl)-1-hydroxy-3-(pyrrolidin-1-yl)propan-2-yl)-2-(2,3-dihydro-1H-inden-2-yl)acetamide]
9 | 0.71 | 187 | 0.216 µg·h/mL | 0.535 |  |  | O=C(CC1Cc2ccccc2C1)N[C@H](CN1CCCC1)[C@H](O)c1ccc(OC(F)F)c(Cl)c1 [Example 13, N-((1R,2R)-1-(3-chloro-4-(difluoromethoxy)phenyl)-1-hydroxy-3-(pyrrolidin-1-yl)propan-2-yl)-2-(2,3-dihydro-1H-inden-2-yl)acetamide]
10 |  |  |  |  | 3.8 | 1.7 | O=C(CC1Cc2ccccc2C1)N[C@H](CN1CCCC1)[C@H](O)c1ccc(OC2CC2)cc1 [Comp. Ex. 4, reference compound]
11 | 0.17 | 24 | BLQ | 0.644 |  |  | O=C(CC1Cc2ccccc2C1)N[C@H](CN1CCCC1)[C@H](O)c1cc(Cl)ccc1F [Example 23, N-((1R,2R)-1-(5-chloro-2-fluorophenyl)-1-hydroxy-3-(pyrrolidin-1-yl)propan-2-yl)-2-(2,3-dihydro-1H-inden-2-yl)acetamide]
12 |  |  |  |  | 15 | 6.5 | O=C(CC1Cc2ccccc2C1)N[C@H](CN1CCCC1)[C@H](O)c1ccccc1 [Comp Ex. 1, reference compound]
13 | 81.5 |  |  |  |  |  | COc1c(Cl)cccc1[C@@H](O)[C@@H](CN1CCCC1)NC(=O)CC1Cc2ccccc2C1 [Example 18, N-((1R,2R)-1-(3-chloro-2-methoxyphenyl)-1-hydroxy-3-(pyrrolidin-1-yl)propan-2-yl)-2-(2,3-dihydro-1H-inden-2-yl)acetamide]
14 |  |  |  |  | 29 | 1 | CC1(C)COc2cc([C@@H](O)[C@@H](CN3CCCC3)NC(=O)CC3Cc4ccccc4C3)ccc2O1 [Comp. Ex. 7, reference compound]
15 |  |  |  |  |  | 4.8 | COc1ccccc1[C@@H](O)[C@@H](CN1CCCC1)NC(=O)CC1Cc2ccccc2C1 [Comp. Ex. 19, reference compound]
16 | 0.54 | 91 |  |  |  |  | O=C(CC1Cc2ccccc2C1)N[C@H](CN1CCCC1)[C@H](O)c1ccc(C2CC2)c(Cl)c1 [Example 8, N-((1R,2R)-1-(3-chloro-4-cyclopropylphenyl)-1-hydroxy-3-(pyrrolidin-1-yl)propan-2-yl)-2-(2,3-dihydro-1H-inden-2-yl)acetamide]
17 |  |  |  |  | 56 | 3.9 | O=C(CC1Cc2ccccc2C1)N[C@H](CN1CCCC1)[C@H](O)c1ccc(C2CC2)cc1 [Comp. Ex. 8, reference compound]
18 |  |  |  |  | 24 | 7.9 | CC1(Oc2ccc([C@@H](O)[C@@H](CN3CCCC3)NC(=O)CC3Cc4ccccc4C3)cc2)COC1 [Comp. Ex. 5, reference compound]
19 | 3.8 | 18 | 0.997 µg·h/mL | 0.401 |  |  | O=C(N[C@H](CN1CCCC1)[C@H](O)c1cccc(Cl)c1)OC1Cc2ccccc2C1 [Example 6, 2,3-dihydro-1H-inden-2-yl ((1R,2R)-1-(3-chlorophenyl)-1-hydroxy-3-(pyrrolidin-1-yl)propan-2-yl)carbamate]
20 | 0.43 | 7.1 |  |  |  |  | COc1ccc(Cl)cc1[C@@H](O)[C@@H](CN1CCCC1)NC(=O)CC1Cc2ccccc2C1 [Example 19, N-((1R,2R)-1-(5-chloro-2-methoxyphenyl)-1-hydroxy-3-(pyrrolidin-1-yl)propan-2-yl)-2-(2,3-dihydro-1H-inden-2-yl)acetamide]
21 | 141 | 4.6 |  |  |  |  | O=C(CC1Cc2ccccc2C1)N[C@H](CN1CCCC1)[C@H](O)c1cccc(Cl)c1F [Example 22, N-((1R,2R)-1-(3-chloro-2-fluorophenyl)-1-hydroxy-3-(pyrrolidin-1-yl)propan-2-yl)-2-(2,3-dihydro-1H-inden-2-yl)acetamide]
22 | 2.1 | 6.5 |  |  |  |  | O=C(CC1Cc2ccccc2C1)N[C@H](CN1CCCC1)[C@H](O)c1cc(Cl)cc(OC2CC2)c1 [Example 20, N-((1R,2R)-1-(3-chloro-5-cyclopropoxyphenyl)-1-hydroxy-3-(pyrrolidin-1-yl)propan-2-yl)-2-(2,3-dihydro-1H-inden-2-yl)acetamide]
23 |  |  |  |  | 120 | 2.5 | CC(C)(C)Oc1ccc([C@@H](O)[C@@H](CN2CCCC2)NC(=O)CC2Cc3ccccc3C2)cc1 [Comp. Ex. 2, reference compound]
24 | 8.7 | 12 | 0.94 µg·h/mL | 0.289 |  |  | O=C(CC1Cc2ccccc2C1)N[C@H](CN1CC[C@@H](F)C1)[C@H](O)c1cccc(Cl)c1 [Example 10, N-((1R,2R)-1-(3-chlorophenyl)-3-((R)-3-fluoropyrrolidin-1-yl)-1-hyroxypropan-2-yl)-2-(2,3-dihydro-1H-inden-2-yl)acetamide]

Row | Compound | IC50 [1, 4] [nM] | half-life [2, 5] [min] | IP PK Brain AUC [3] | AUC [3] [µg·h/mL] | half-life [2, 6] [min] | IC50 ([1]; Table 2, Cl vs H comparison) [nM]
25 | [2H]C([2H])([2H])N(C(=O)CC1Cc2ccccc2C1)[C@H](CN1CCCC1)[C@H](O)c1cccc(Cl)c1 [Example 17, N-((1R,2R)-1-(3-chlorophenyl)-1-hydroxy-3-(pyrrolidin-1-yl)propan-2-yl)-2-(2,3-dihydro-1H-inden-2-yl)-N-(methyl-d3)acetamide] | 11 | 15 | 0.742 µg·h/mL | 0.366 |  | 
